Experimental data taken from ChEMBL document CHEMBL5034035, “Discovery of an Oxycyclohexyl Acid Lysophosphatidic Acid Receptor 1 (LPA1) Antagonist BMS-986278 for the Treatment of Pulmonary Fibrotic Diseases” (J Med Chem, 2021).
≈ marks a conversion by molar mass, not a printed value.

How the values were obtained:
Cytochrome P450 2C8 = target: T1, Cytochrome P450 2C8 (Homo sapiens, UniProt P10632); assay: Inhibition of CYP2C8 (unknown origin); type: ADME
T1 sequence (P10632 whole entry): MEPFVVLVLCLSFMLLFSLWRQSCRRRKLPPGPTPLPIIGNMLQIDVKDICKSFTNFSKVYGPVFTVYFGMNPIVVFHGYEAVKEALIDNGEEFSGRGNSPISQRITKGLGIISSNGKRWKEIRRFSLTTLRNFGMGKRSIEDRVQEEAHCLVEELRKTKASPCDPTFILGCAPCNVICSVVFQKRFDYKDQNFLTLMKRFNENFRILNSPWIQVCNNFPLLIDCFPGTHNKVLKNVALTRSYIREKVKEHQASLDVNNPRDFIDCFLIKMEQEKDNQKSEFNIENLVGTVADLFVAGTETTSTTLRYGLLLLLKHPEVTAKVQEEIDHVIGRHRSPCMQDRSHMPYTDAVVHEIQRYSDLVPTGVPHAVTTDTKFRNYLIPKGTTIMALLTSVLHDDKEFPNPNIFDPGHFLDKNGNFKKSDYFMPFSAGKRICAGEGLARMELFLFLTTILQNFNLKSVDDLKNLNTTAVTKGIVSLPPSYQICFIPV

[1] = Half life in mouse liver microsomes at 10 uM measured after 120 mins; type: ADME, Microsome
CYP2C9 = CYP2C9 (Homo sapiens, UniProt P11712); assay: Induction of CYP2C9 in human hepatocytes; type: ADME, cell-based, Hepatocyte
[2] = Protein binding in Sprague-Dawley rat plasma assessed as free fraction at 3 mg/kg, po or 1 mg/kg, iv measured up to 24 hrs by LC-MS/MS analysis; type: ADME, organism-based
[3] = target: ATP-binding cassette sub-family C member 3 (Homo sapiens, UniProt O15438); assay: Inhibition of MRP3 (unknown origin)
Bile salt export pump = Bile salt export pump (Homo sapiens, UniProt O95342); assay: Inhibition of BSEP (unknown origin); type: ADME
Cytochrome P450 2D6 = Cytochrome P450 2D6 (Homo sapiens, UniProt P10635); assay: Inhibition of CYP2D6 (unknown origin); type: ADME
Cytochrome P450 2C19 = Cytochrome P450 2C19 (Homo sapiens, UniProt P33261); assay: Inhibition of CYP2C19 (unknown origin); type: ADME
CYP3A4 = CYP3A4 (Homo sapiens, UniProt P08684); assay: Induction of CYP3A4 in human hepatocytes; type: ADME, cell-based, Hepatocyte
[4] = target: T2, Solute carrier organic anion transporter family member 1B1 (Homo sapiens, UniProt Q9Y6L6); assay: Inhibition of OATP1B1 (unknown origin); type: ADME
T2 sequence (Q9Y6L6 whole entry): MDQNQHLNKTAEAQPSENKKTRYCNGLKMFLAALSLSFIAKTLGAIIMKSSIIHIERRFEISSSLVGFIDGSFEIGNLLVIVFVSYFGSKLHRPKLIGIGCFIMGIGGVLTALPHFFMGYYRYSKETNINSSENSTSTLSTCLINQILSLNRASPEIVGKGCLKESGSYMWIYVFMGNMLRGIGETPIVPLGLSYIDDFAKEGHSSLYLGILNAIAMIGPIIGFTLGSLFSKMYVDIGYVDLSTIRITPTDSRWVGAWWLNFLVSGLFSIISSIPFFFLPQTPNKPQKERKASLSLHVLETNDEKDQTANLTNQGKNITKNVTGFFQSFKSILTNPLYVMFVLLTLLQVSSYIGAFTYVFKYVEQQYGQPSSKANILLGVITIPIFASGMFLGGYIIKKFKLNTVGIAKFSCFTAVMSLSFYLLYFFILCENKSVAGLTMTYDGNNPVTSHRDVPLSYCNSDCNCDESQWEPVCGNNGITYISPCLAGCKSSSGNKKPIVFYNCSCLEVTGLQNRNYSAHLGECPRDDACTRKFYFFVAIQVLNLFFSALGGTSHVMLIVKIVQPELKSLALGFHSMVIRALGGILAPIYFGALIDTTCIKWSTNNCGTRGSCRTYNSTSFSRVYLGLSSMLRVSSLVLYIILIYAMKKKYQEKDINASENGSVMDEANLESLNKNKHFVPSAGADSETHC

[5] = Half life in human liver microsomes at 10 uM measured after 120 mins; type: ADME, Microsome
[6] = Protein binding in human plasma assessed as free fraction at 3 mg/kg, po or 1 mg/kg, iv measured up to 24 hrs by LC-MS/MS analysis; type: ADME, organism-based
[7] = target: T3, Solute carrier organic anion transporter family member 1B3 (Homo sapiens, UniProt Q9NPD5); assay: Inhibition of OATP1B3 (unknown origin); type: ADME
T3 sequence (Q9NPD5 whole entry): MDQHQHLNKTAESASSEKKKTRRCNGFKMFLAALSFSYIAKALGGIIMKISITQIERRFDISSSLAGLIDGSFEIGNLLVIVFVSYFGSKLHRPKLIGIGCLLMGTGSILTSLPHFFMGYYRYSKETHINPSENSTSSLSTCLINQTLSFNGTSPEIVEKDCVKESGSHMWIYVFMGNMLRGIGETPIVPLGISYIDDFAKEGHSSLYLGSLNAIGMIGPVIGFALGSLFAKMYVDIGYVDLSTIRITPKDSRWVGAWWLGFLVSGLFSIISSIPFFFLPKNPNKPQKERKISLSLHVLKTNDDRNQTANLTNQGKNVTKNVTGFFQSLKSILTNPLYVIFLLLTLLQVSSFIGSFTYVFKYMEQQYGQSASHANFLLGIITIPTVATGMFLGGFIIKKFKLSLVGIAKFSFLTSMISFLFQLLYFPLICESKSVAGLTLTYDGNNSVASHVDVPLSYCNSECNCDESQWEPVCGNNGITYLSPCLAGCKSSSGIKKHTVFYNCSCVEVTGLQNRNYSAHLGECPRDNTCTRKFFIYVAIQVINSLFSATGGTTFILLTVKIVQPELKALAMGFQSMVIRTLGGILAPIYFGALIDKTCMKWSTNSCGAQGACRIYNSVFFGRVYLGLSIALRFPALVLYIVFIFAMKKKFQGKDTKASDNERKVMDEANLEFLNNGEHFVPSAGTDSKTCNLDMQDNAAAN

Cytochrome P450 2B6 = target: T4, Cytochrome P450 2B6 (Homo sapiens, UniProt P20813); assay: Inhibition of CYP2B6 (unknown origin); type: ADME
T4 sequence (P20813 whole entry): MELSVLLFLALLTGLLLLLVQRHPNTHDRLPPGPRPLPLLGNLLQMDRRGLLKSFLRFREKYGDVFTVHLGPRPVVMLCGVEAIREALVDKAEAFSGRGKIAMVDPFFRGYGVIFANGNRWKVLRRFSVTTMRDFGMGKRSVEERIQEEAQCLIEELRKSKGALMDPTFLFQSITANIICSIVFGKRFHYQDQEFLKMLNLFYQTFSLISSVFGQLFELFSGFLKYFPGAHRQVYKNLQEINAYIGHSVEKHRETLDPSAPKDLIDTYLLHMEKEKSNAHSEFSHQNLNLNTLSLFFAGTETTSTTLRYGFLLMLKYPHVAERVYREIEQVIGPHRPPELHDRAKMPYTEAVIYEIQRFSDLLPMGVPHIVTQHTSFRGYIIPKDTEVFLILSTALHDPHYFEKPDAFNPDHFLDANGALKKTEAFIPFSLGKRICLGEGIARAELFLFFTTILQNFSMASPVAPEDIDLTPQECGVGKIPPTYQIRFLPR

[8] = Aqueous solubility of compound at pH 1; type: physicochemical

Sequence of Cytochrome P450 2D6 (P10635 whole entry): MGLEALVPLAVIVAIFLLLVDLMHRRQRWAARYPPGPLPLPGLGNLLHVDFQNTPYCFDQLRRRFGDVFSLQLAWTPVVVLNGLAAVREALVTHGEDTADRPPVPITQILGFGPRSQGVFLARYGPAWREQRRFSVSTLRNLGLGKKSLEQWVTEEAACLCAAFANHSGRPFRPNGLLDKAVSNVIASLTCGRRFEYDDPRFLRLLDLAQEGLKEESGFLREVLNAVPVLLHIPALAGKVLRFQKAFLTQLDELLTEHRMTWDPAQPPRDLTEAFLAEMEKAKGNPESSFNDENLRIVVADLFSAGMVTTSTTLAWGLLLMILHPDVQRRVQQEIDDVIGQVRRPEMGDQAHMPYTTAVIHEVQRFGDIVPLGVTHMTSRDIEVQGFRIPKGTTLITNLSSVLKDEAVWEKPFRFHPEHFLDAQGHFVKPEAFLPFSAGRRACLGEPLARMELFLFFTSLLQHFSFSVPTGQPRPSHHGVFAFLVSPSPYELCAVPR
Sequence of CYP3A4 (P08684 whole entry): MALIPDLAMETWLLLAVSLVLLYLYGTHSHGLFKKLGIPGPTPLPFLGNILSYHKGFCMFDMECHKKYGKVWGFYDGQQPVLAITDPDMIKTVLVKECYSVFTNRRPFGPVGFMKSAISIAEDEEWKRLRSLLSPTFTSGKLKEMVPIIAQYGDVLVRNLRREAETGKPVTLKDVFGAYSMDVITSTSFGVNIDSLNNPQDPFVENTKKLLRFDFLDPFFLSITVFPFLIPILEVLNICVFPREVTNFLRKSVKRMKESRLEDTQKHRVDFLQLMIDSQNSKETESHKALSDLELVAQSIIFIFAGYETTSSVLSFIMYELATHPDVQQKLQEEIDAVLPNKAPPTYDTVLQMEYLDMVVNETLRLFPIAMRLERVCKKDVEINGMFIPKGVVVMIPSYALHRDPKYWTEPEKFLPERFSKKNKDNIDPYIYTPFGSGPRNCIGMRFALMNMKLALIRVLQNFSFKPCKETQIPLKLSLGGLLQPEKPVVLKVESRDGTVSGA
Sequence of Cytochrome P450 2C19 (P33261 whole entry): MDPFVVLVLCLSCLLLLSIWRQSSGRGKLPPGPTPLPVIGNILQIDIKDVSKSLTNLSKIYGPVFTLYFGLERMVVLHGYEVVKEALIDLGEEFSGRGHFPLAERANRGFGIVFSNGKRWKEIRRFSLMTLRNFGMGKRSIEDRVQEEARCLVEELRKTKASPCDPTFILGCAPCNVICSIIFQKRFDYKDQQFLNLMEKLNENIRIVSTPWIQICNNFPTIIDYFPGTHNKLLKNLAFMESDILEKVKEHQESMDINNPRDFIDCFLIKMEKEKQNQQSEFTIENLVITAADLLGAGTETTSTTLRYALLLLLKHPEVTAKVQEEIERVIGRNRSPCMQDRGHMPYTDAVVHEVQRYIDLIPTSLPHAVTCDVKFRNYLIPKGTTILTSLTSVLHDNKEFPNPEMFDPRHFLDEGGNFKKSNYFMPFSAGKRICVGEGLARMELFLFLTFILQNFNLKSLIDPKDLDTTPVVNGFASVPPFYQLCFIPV
Sequence of CYP2C9 (P11712 whole entry): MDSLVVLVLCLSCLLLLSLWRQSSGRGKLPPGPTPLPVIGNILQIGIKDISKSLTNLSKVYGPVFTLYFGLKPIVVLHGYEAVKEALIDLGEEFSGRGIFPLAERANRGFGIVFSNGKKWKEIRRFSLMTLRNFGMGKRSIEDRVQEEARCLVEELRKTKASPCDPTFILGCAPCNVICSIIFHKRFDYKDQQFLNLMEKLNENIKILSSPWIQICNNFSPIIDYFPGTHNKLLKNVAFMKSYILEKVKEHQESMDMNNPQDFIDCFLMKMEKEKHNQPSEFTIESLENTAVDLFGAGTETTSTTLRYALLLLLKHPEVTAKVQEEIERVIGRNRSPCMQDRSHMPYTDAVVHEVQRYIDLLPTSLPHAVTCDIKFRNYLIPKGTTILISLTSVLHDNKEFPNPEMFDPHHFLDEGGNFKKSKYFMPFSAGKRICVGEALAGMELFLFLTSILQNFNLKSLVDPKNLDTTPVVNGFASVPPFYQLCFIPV
Sequence of Bile salt export pump (O95342 whole entry): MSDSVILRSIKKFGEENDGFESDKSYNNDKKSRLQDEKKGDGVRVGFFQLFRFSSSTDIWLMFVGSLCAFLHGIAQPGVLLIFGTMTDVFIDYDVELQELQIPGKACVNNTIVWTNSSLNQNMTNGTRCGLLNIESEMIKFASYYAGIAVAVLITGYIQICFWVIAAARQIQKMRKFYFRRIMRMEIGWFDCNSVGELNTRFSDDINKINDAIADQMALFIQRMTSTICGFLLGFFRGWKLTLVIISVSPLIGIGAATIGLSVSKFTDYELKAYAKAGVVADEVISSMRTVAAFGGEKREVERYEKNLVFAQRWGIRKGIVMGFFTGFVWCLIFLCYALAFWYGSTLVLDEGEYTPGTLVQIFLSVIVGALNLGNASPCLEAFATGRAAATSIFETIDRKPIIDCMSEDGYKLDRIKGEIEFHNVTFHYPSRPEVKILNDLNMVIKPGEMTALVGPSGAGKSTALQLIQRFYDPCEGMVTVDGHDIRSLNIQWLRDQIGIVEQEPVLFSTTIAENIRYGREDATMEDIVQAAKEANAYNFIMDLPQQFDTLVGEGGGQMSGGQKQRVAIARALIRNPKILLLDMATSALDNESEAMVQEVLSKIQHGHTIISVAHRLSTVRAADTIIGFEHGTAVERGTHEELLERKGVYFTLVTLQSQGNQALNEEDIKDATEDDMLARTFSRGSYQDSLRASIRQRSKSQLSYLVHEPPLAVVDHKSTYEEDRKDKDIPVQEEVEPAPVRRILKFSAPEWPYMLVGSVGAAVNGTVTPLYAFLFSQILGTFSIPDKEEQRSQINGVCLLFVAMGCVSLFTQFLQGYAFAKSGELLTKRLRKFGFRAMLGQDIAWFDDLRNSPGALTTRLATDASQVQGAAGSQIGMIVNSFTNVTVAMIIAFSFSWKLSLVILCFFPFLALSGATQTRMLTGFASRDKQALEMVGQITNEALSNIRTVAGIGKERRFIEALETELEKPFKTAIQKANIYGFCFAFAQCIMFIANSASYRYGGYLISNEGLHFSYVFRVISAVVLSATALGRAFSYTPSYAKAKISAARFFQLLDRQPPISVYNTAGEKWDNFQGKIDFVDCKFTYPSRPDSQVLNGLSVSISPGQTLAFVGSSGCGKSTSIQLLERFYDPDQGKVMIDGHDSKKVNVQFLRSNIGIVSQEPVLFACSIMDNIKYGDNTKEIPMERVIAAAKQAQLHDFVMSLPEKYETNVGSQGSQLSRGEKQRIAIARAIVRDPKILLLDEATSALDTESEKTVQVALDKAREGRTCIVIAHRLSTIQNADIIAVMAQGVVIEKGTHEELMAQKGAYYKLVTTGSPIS
Sequence of ATP-binding cassette sub-family C member 3 (O15438 whole entry): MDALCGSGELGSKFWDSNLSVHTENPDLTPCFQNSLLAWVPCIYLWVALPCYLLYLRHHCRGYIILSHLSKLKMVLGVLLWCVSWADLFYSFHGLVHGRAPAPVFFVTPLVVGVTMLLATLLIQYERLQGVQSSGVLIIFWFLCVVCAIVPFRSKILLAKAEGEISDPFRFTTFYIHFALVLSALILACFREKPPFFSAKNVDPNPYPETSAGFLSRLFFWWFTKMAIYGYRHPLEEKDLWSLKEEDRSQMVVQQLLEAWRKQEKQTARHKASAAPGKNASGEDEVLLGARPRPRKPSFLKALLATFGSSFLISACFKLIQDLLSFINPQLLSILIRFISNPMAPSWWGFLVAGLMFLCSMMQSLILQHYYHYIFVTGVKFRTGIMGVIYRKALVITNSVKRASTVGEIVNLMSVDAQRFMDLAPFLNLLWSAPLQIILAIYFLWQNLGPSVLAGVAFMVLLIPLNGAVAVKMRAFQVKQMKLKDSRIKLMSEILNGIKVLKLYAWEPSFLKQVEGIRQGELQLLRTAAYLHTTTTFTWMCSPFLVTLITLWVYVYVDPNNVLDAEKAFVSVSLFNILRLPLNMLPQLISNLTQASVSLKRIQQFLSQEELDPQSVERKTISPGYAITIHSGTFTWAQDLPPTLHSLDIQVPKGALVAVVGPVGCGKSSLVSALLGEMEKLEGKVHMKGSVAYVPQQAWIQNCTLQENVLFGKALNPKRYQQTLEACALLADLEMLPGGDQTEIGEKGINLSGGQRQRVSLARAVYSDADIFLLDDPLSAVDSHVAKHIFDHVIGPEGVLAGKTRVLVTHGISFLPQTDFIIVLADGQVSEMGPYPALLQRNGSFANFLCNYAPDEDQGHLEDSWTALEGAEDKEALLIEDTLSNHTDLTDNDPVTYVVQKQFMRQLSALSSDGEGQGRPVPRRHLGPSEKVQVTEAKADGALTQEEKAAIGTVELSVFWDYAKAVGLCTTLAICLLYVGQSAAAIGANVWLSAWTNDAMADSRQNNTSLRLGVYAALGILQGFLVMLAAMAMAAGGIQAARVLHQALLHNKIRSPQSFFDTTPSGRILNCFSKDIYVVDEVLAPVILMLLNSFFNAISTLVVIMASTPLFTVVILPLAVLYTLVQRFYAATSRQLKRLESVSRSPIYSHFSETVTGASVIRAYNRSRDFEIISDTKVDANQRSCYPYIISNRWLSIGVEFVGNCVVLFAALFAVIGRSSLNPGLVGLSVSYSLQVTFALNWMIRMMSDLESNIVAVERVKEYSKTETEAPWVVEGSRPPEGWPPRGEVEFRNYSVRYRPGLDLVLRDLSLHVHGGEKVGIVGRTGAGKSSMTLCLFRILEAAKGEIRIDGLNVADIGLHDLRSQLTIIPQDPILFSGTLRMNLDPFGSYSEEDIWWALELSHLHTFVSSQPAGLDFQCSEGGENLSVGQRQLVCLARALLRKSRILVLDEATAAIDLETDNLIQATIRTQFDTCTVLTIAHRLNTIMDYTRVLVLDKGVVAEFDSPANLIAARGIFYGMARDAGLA

SMILES	IC50 (Cytochrome P450 2C8) [µM]	half-life at 10 µM [1] [h]	IC50 (CYP2C9) [µM]	fraction unbound at 24 h [2]	IC50 [3] [µM]	IC50 (Bile salt export pump) [µM]	IC50 (Cytochrome P450 2D6) [µM]	IC50 (Cytochrome P450 2C19) [µM]	IC50 (CYP3A4) [µM]	IC50 [4] [µM]	half-life at 10 µM [5] [h]	fraction unbound at 24 h [6]	IC50 [7] [µM]	IC50 (Cytochrome P450 2B6) [µM]	solubility [8] [µg/mL]
CCCN(C)C(=O)OCc1c(-c2ccc(O[C@H]3CCC[C@H](C(=O)O)C3)c(C)n2)nnn1C [ADMILPARANT]	> 40	> 2	> 50	0.126	66	> 100	> 40	> 40	> 50	36	> 2	0.056	10	> 40	2990 (≈ 6710 µM)
Cc1nc(-c2nnn(C)c2COC(=O)N(C)CC2CCC2)ccc1O[C@H]1CCC[C@H](C(=O)O)C1	> 40	> 2	> 50	0.053	24	19.6	> 40	> 40	> 50	1.5	> 2	0.033	2.6	> 40	389 (≈ 825 µM)
Cc1noc(-c2ccc(-c3ccc(C4(C(=O)O)CC4)cc3)cc2)c1NC(=O)O[C@H](C)c1ccccc1 [BMS-986020]	3.5	1.52	> 50	0.002	22	4.8	> 50	> 50	> 50	0.17	1.38	0.002	0.57	> 50	< 1
